Square brackets hold non-standard residues; d marks the D form. Peptide text beside a SMILES is read from it. * marks the point of attachment. Dolaproine = CO[C@@H]([C@@H]1CCCN1)[C@@H](C)C(=O)O; Dil = CC[C@H](C)[C@H](NC)[C@@H](CC(=O)O)OC; X1 = C[C@@H](N*)[C@@H](O)c1ccccc1; NMeV = CN[C@H](C(=O)O)C(C)C
Tests used:
porcine tubulin [1] = target: T1, porcine tubulin (Sus scrofa, UniProt P02550+P02554); test: Activity for inhibiting microtubule polymerization using porcine tubulins (1), tubulin polymerization inhibition assay kit; format: biochemical; settings: compound 0.91 μM, absorbance at 340 nm at 37° C., FIG. 1
T1 construct: purchased Cytoskeleton Inc. BK006P
T1 sequence (P02550 whole entry): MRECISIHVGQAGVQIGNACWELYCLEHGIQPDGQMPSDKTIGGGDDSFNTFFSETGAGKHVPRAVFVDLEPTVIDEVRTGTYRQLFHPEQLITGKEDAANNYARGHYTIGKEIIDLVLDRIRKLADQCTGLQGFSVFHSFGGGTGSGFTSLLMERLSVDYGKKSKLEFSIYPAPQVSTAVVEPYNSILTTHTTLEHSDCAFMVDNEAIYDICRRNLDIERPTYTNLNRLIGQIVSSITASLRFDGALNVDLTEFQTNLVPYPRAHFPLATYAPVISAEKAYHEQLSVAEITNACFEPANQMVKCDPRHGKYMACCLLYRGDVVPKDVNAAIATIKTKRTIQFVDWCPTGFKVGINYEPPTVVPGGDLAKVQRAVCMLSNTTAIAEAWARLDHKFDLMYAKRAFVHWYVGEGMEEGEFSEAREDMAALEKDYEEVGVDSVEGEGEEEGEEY
T1 sequence (P02554 whole entry): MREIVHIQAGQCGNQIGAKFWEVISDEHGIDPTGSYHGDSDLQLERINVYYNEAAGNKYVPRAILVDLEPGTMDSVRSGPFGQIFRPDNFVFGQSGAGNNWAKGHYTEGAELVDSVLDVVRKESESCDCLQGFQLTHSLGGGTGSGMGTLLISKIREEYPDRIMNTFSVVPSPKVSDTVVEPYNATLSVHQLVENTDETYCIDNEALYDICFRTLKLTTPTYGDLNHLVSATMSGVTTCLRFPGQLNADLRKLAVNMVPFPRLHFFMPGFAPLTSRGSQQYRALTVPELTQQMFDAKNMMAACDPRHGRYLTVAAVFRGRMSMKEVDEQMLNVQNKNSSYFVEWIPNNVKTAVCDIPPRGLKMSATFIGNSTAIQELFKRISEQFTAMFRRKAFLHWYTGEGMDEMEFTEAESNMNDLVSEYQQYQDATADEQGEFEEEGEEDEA
Description: (§1) Using a tubulin polymerization inhibition assay kit (catalog number: BK006P) purchased from Cytoskeleton Inc., the polymerization inhibitory activity of compounds of Examples with a concentration of 0.91 μM was evaluated in accordance with the protocol appended to the kit. In summary of the protocol, to a 96 well microplate, 80 mM PIPES pH 6.9, 2 mM MgCl, 0.5 mM EGTA and 5% DMSO buffered solution of the compound to be evaluated was added in an amount of 10 μL for each well, and to these wells, 3 mg/mL porcine tubulin 80 mM PIPES pH 6.9, 2 mM MgCl, 0.5 mM EGTA, 1 mM GTP and 10.2% glycerol solution was added in an amount of 100 μL for each well. In order to examine a state in which tubulins polymerize over time, the absorbance at 340 nm was measured at 37° C., using a microplate reader. As the polymerization of tubulins progresses, the absorbance at 340 nm rises.

[2] = Membrane permeability test, parallel artificial membrane permeability assay (PAMPA); format: in vitro ADME; settings: pH 7.4, 37° C.; for Papp at 4 h: read-out: permeability coefficient Pe (pH 7.4)
Description: By the parallel artificial membrane permeability assay (PAMPA), the membrane permeability of compounds of Examples was examined as follows: To the donor plate, System solution (pION inc.) and GIT Lipid-0 (pION inc.) were added in an amount of 200 μL and 4 μL for each well, respectively. To the acceptor plate, Acceptor Sink Buffer (pION inc.) was added in an amount of 200 μL. Both plates were superposed and incubated at 37° C. for 4 hours, and then, UVs in the solutions on the side of acceptor and on the side of donor were measured with a UV plate reader (190 to 500 nm). Compounds with poor UV absorption were measured by LC-MS. The permeability coefficient Pe (10^−6 cm/sec) of the drug was calculated by the following formula.

porcine tubulin [3] = target: T1, porcine tubulin; test: Activity for inhibiting microtubule polymerization using porcine tubulins (2), microtubule polymerization rate; format: biochemical; settings: compound 9.1 μM, 60 minutes after assay initiation, relative to wells without compound; lower = stronger inhibition
Description: as §1, with “Examples at” for “Examples with”, “of 9.1” for “of 0.91”, “kit. To” for “kit. In summary of the protocol, to”
The tubulin polymerization inhibitory activity was evaluated based on the proportion of polymerized tubulins 60 minutes after the assay initiation. Specifically, the microtubule polymerization rate (%) was calculated by dividing the absorbance of tubulins that had polymerized at wells to which the compound had been added by the absorbance of tubulins that had polymerized at wells to which the compound had not been added, and multiplying the obtained value by 100.

SMILES	activity for inhibiting microtubule polymerization (porcine tubulin [1])	Papp at 4 h [2] [×10⁻⁶ cm/s]	Microtubule polymerization rate (%) (porcine tubulin [3])	permeability coefficient Pe (pH 7.4) ([2]; 4 hours)
CN[C@H](C(=O)N[C@H](C(=O)N(C)[C@H](/C=C(\C)C(=O)N[C@H](CCC(=O)O)C(=O)O)C(C)C)C(C)(C)C)C(C)(C)c1cn(C)c2ccccc12 [Example 1, N,β,β-tetramethyl-L-tryptophyl-N-[(3S,4E)-6-{[(1R)-1,3-dicarboxypropyl]amino}-2,5-dimethyl-6-oxohex-4-en-3-yl]-N,3-dimethyl-L-valinamide]	comparable activities for inhibiting microtubule polymerization	< 0.1		
CN[C@H](C(=O)N[C@H](C(=O)N(C)[C@H](/C=C(\C)C(=O)N[C@H](CCC(=O)O)C(=O)O)C(C)C)C(C)(C)C)C(C)(C)c1ccccc1 [Example 2, N,β,β-Trimethyl-L-phenylalanyl-N-[(3S,4E)-6-{[(1R)-1,3-dicarboxypropyl]amino}-2,5-dimethyl-6-oxohex-4-en-3-yl]-N,3-dimethyl-L-valinamide]		< 0.1	2	
C/C(=C\[C@H](C(C)C)N(C)C(=O)[C@@H](NC(=O)[C@H]1CCCCN1C(C)C)C(C)(C)C)C(=O)N[C@H](CCC(=O)O)C(=O)O [Example 3, N-[(2E,4S)-2,5-Dimethyl-4-(methyl {3-methyl-N-[(2R)-1-(propan-2-yl)piperidine-2-carbonyl]-L-valyl}amino)hex-2-enoyl]-D-glutamic acid]		< 0.1	5	
CN[C@H](C(=O)N[C@H](C(=O)N(C)[C@H](/C=C(\C)C(=O)N[C@H](CC(=O)O)C(=O)O)C(C)C)C(C)(C)C)C(C)(C)c1cn(C)c2ccccc12 [Example 5]		< 0.1		
CN[C@H](C(=O)N[C@H](C(=O)N(C)[C@H](/C=C(\C)C(=O)N[C@@H](CCC(=O)O)C(=O)O)C(C)C)C(C)(C)C)C(C)(C)c1cn(C)c2ccccc12 [Example 6]		< 0.1	4	
CN[C@H](C(=O)N[C@H](C(=O)N(C)[C@H](/C=C(\C)C(=O)N[C@H](CCCCN)C(=O)O)C(C)C)C(C)(C)C)C(C)(C)c1cn(C)c2ccccc12 [Example 7]		0.8		
CN[C@H](C(=O)N[C@H](C(=O)N(C)[C@H](/C=C(\C)C(=O)N[C@@H](CCC(=O)O)C(=O)O)C(C)C)C(C)(C)C)C(C)(C)c1ccccc1 [Example 9]		< 0.1	5	
CN[C@H](C(=O)N[C@H](C(=O)N(C)[C@H](/C=C(\C)C(=O)N[C@H](CCC(=O)NCCN1C(=O)CC(SC[C@H](N)C(=O)O)C1=O)C(=O)O)C(C)C)C(C)(C)C)C(C)(C)c1ccccc1 (stereo partly drawn) [Example 37, (3S,6S,9S,10E,14R)-14-(3-{[2-(3-{[(2R)-2-Amino-2-carboxyethyl]sulfanyl}-2,5-dioxopyrrolidin-1-yl)ethyl]amino}-3-oxopropyl)-6-tert-butyl-8,11-dimethyl-4,7,12-trioxo-3-(2-phenylpropan-2-yl)-9-(propan-2-yl)-2,5,8,13-tetraazapentadec-10-en-15-oic acid]		0.2	9	
CN[C@H](C(=O)N[C@H](C(=O)N(C)[C@H](/C=C(\C)C(=O)NCCCC[C@@H](NC(=O)CCCN1C(=O)CC(SC[C@H](N)C(=O)O)C1=O)C(=O)O)C(C)C)C(C)(C)C)C(C)(C)c1cn(C)c2ccccc12 (stereo partly drawn) [Example 39]		1.4	2	
CN[C@H](C(=O)N[C@H](C(=O)N(C)[C@H](/C=C(\C)C(=O)N[C@H](CC(=O)NCCN1C(=O)CC(SC[C@H](N)C(=O)O)C1=O)C(=O)O)C(C)C)C(C)(C)C)C(C)(C)c1ccccc1 (stereo partly drawn) [Example 40]		3		
CN[C@H](C(=O)N[C@H](C(=O)N(C)[C@H](/C=C(\C)C(=O)N[C@@H](CC(=O)NCCN1C(=O)CC(SC[C@H](N)C(=O)O)C1=O)C(=O)O)C(C)C)C(C)(C)C)C(C)(C)c1ccccc1 (stereo partly drawn) [Example 41]		< 0.1		
CN[C@H](C(=O)N[C@H](C(=O)N(C)[C@H](/C=C(\C)C(=O)N[C@@H](CCC(=O)NCCN1C(=O)CC(SC[C@H](N)C(=O)O)C1=O)C(=O)O)C(C)C)C(C)(C)C)C(C)(C)c1ccccc1 (stereo partly drawn) [Example 42]		2.2	0	
CN[C@H](C(=O)N[C@H](C(=O)N(C)[C@H](/C=C(\C)C(=O)N[C@H](CCC(=O)O)C(=O)NCCN1C(=O)CC(SC[C@H](N)C(=O)O)C1=O)C(C)C)C(C)(C)C)C(C)(C)c1ccccc1 (stereo partly drawn) [Example 46]		3.5	0	
CN[C@H](C(=O)N[C@H](C(=O)N(C)[C@H](/C=C(\C)C(=O)N[C@H](CCC(=O)NCCCCN1C(=O)CC(SC[C@H](N)C(=O)O)C1=O)C(=O)O)C(C)C)C(C)(C)C)C(C)(C)c1ccccc1 (stereo partly drawn) [Example 48]		5.8	0	
CN[C@H](C(=O)N[C@H](C(=O)N(C)[C@H](/C=C(\C)C(=O)N[C@@H](CCC(=O)NCCN1C(=O)CC(SC[C@H](N)C(=O)O)C1=O)C(=O)O)C(C)C)C(C)(C)C)C(C)(C)c1cn(C)c2ccccc12 (stereo partly drawn) [Example 49]		< 0.1	0	
CN[C@H](C(=O)N[C@H](C(=O)N(C)[C@H](/C=C(\C)C(=O)N[C@H](CCC(=O)NCCCN1C(=O)CC(SC[C@H](N)C(=O)O)C1=O)C(=O)O)C(C)C)C(C)(C)C)C(C)(C)c1cn(C)c2ccccc12 (stereo partly drawn) [Example 54]		< 0.1	0	
CN[C@H](C(=O)N[C@H](C(=O)N(C)[C@H](/C=C(\C)C(=O)N[C@@H](CCCCNC(=O)CCCN1C(=O)CC(SC[C@H](N)C(=O)O)C1=O)C(=O)O)C(C)C)C(C)(C)C)C(C)(C)c1cn(C)c2ccccc12 (stereo partly drawn) [Example 57]		< 0.1		
CN[C@H](C(=O)N[C@H](C(=O)N(C)[C@H](/C=C(\C)C(=O)NCCCC[C@@H](NC(=O)CCCN1C(=O)CC(SC[C@H](N)C(=O)O)C1=O)C(=O)O)C(C)C)C(C)(C)C)C(C)(C)c1ccccc1 (stereo partly drawn) [Example 58]		3	0	
CN[C@H](C(=O)N[C@H](C(=O)N(C)[C@H](/C=C(\C)C(=O)O)C(C)C)C(C)(C)C)C(C)(C)c1cn(C)c2ccccc12 [Hemiasterlin, reference compound]	comparable activities for inhibiting microtubule polymerization	25.6	0	
CC[C@H](C)[C@@H]([C@@H](CC(=O)N1CCC[C@H]1[C@H](OC)[C@@H](C)C(=O)N[C@H](C)[C@@H](O)c1ccccc1)OC)N(C)C(=O)[C@@H](NC(=O)[C@@H](NC)C(C)C)C(C)C [MMAE, monomethyl auristatin, reference compound] (H-[NMeV]V[Dil][Dolaproine]-X1)	comparable activities for inhibiting microtubule polymerization			15.3 10^−6 cm/sec
